Data published in patent US6433197B1, “Substituted oxygen alicyclic compounds, including methods for synthesis thereof” (Millennium Pharmaceuticals, Inc., priority 1998, dated 2002).

Tested on: Leukotriene B4
Assay: Human whole blood assay, Leukotriene B4 inhibition
Type: cell-based
Details: heparinized human whole blood; pre-incubated 15 minutes at 37° C.; stimulated with 50 μM calcium ionphor for 30 minutes at 37° C.; EIA; read-out: IC50 (Leukotriene B4 inhibition, LTB4 content of plasma)
Description: The following compound of the invention was tested for Leukotriene B4 inhibition in the human whole blood assay detailed below. [drawing 40]
Heparinized human whole blood was pre-incubated with selected concentrations of the test compound for 15 minutes at 37° C. and stimulated with 50 μM calcium ionphor for 30 minutes at 37° C. The reaction was stopped by placing samples on ice and cold centrifugation at 4° C. for 10 minutes at 1100×g. Test sample plasma was diluted in buffer and assayed for LTB4 content. Test compound activity was determined as per Cayman […] EIA and evaluated as IC50 [nM].

In the case of NC(=O)N(O)CC#CC1CC[C@@H](Cc2ccc(F)cc2)O1 (stereo partly shown), the IC50 is reported as 148 nM.
